Source: US12084458B2, “Substituted pyridines, pyridazines, and pyrimidines as TYK2 inhibitors” (Sudo Biosciences Limited, priority 2021, dated 2024)
Read-outs that look alike come from different tables or passages of the source.

Experiments:
Type in all cases: cell-based
[1] = tested on: HEK-Blue IL-2 reporter cells (IL-2-stimulated STAT5 SEAP reporter); test: HEK-Blue IL-2 SEAP reporter assay for determining selectivity; conditions: 4 ng/mL human recombinant IL-2
Description: (§1) Example B-3: HEK-Blue™ IL-2 and IFNγ Reporter Assays for Determining Selectivity
(§2) HEK-Blue™ IL-2 and IFNγ reporter cells with a stably-integrated cytokine receptor and STAT5 or STAT1 express STAT-inducible secreted embryonic alkaline phosphatase (SEAP) reporter gene upon cytokine stimulation. These cells were plated in DMEM (Gibco) containing 10% heat-inactivated FBS (Gibco) and 100 U/mL PenStrep (Gibco) at 37° C. under 5% CO2 conditions for 20-22 hours. The cells were then pretreated with serially diluted test compounds for 60 min prior to stimulation with either 4 ng/mL human recombinant IL-2 (Miltenyl Biotech) or 50 ng/mL human recombinant IFNγ (InvivoGen) for 24 hours. SEAP induction was measured using the QUANTI-Blue™ Solution (InvivoGen) according to the manufacturer's instructions.

[2] = tested on: HEK-Blue IFNα/β cells (IFNα-stimulated STAT1 SEAP reporter; TYK2 JH2); test: HEK-Blue IFNα/β SEAP reporter assay for profiling TYK2 pseudokinase (JH2) inhibition; conditions: 1 ng/mL human recombinant IFNα, read-out: IFNα (TYK2 inhibitory activity, IC50)
In short: (§3)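 Cells were pretreated 60 min with serially diluted compounds, then stimulated with 10 ng/mL human IL-23 for 22-24 hours (STAT3 line) or 1 ng/mL human IFNα for 16-18 h (STAT1 line). SEAP induction read with QUANTI-Blue.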

[3] = tested on: HEK-Blue IFNγ reporter cells (IFNγ-stimulated STAT1 SEAP reporter); test: HEK-Blue IFNγ SEAP reporter assay for determining selectivity; conditions: 50 ng/mL human recombinant IFNγ, read-out: IFN-γ (SEAP selectivity, IC50)
Description: as §1, §2

[4] = tested on: HEK-Blue IL-23 cells (IL-23-stimulated STAT3 SEAP reporter; TYK2 JH2); test: HEK-Blue IL-23 SEAP reporter assay for profiling TYK2 pseudokinase (JH2) inhibition; conditions: 10 ng/mL human recombinant IL-23, SEAP reporter, read-out: IL23 (TYK2 inhibitory activity, IC50)
In short: as §3

SMILES | IC50 [1] [nM] | IC50 ([2]; Homo sapiens, HEK-Blue) [nM] | IC50 ([3]; Homo sapiens, HEK-Blue) [nM] | IC50 [4] [nM] | IC50 [2] [nM] | IC50 [3] [nM]
[2H]C([2H])([2H])NC(=O)c1cnc(NC(=O)[C@@H]2CC2(F)F)cc1Nc1cccc2c1N(C)Cc1nn(C)nc1-2 [Compound 70, (S)-6-(2,2-difluorocyclopropane-1-carboxamido)-4-((2,5-dimethyl-4,5-dihydro-2H-[1,2,3]triazolo[4,5-c]quinolin-6-yl)amino)-N-(methyl-d3)nicotinamide] | > 1000 | 30 to 300 | > 1000 | < 30 | – | –
[2H]C([2H])([2H])NC(=O)c1nnc(NC(=O)[C@H]2CC2(F)F)cc1Nc1nccc2c1N(C)Cc1nn(C)nc1-2 [Compound 71, (R)-6-(2,2-difluorocyclopropane-1-carboxamido)-4-((2,5-dimethyl-4,5-dihydro-2H-[1,2,3]triazolo[4,5-c][1,7]naphthyridin-6-yl)amino)-N-(methyl-d3)pyridazine-3-carboxamide] | > 1000 | – | – | < 30 | < 30 | 30 to 300
[2H]C([2H])([2H])NC(=O)c1nnc(NC(=O)C2CC2)cc1Nc1cc(F)cc2c1N(C)Cc1nc(C)nn1-2 [Compound 90, 6-(cyclopropanecarboxamido)-4-((8-fluoro-2,5-dimethyl-4,5-dihydro-[1,2,4]triazolo[1,5-a]quinoxalin-6-yl)amino)-N-(methyl-d3)pyridazine-3-carboxamide] | > 1000 | 30 to 300 | 30 to 300 | < 30 | – | –
[2H]C([2H])([2H])NC(=O)c1nnc(NC(=O)C2CC2)cc1Nc1nccc2c1N(C)Cc1nn(C([2H])([2H])[2H])nc1-2 [Compound 91, 6-(cyclopropanecarboxamido)-N-(methyl-d3)-4-((5-methyl-2-(methyl-d3)-4,5-dihydro-2H-[1,2,3]triazolo[4,5-c][1,7]naphthyridin-6-yl)amino)pyridazine-3-carboxamide] | > 1000 | < 30 | 30 to 300 | < 30 | – | –
[2H]C([2H])([2H])NC(=O)c1cnc(NC(=O)C2CC2)cc1Nc1nccc2c1N(C)Cc1nn(C([2H])([2H])[2H])nc1-2 [Compound 92, 6-(cyclopropanecarboxamido)-N-(methyl-d3)-4-((5-methyl-2-(methyl-d3)-4,5-dihydro-2H-[1,2,3]triazolo[4,5-c][1,7]naphthyridin-6-yl)amino)nicotinamide] | 300 to 1000 | < 30 | 30 to 300 | < 30 | – | –
[2H]C([2H])([2H])NC(=O)c1nnc(NC(=O)C2CC2)cc1Nc1nccc2c1N(C)Cc1nn(CC)nc1-2 [Compound 93, 6-(cyclopropanecarboxamido)-4-((2-ethyl-5-methyl-4,5-dihydro-2H-[1,2,3]triazolo[4,5-c][1,7]naphthyridin-6-yl)amino)-N-(methyl-d3)pyridazine-3-carboxamide] | 300 to 1000 | < 30 | 300 to 1000 | < 30 | – | –
[2H]C([2H])([2H])NC(=O)c1nnc(NC(=O)C2CC2)cc1Nc1nccc2c1N(C)C([2H])([2H])c1nn(C)nc1-2 [Compound 96, 6-(cyclopropanecarboxamido)-4-((2,5-dimethyl-4,5-dihydro-2H-[1,2,3]triazolo[4,5-c][1,7]naphthyridin-6-yl-4,4-d2)amino)-N-(methyl-d3)pyridazine-3-carboxamide] | 300 to 1000 | < 30 | 30 to 300 | < 30 | – | –
[2H]C([2H])([2H])NC(=O)c1cnc(NC(=O)C2CC2)cc1Nc1nccc2c1N(C)C([2H])([2H])c1nn(C)nc1-2 [Compound 97, 6-(cyclopropanecarboxamido)-4-((2,5-dimethyl-4,5-dihydro-2H-[1,2,3]triazolo[4,5-c][1,7]naphthyridin-6-yl-4,4-d2)amino)-N-(methyl-d3)nicotinamide] | > 1000 | < 30 | 300 to 1000 | < 30 | – | –
